A compilation of properties of binary mixtures (doi:10.1021/je1012444)

Test: xn = mol fraction of the nth substance listed
Details: 100 kPa

Compound `CCCC[n+]1ccn(C)c1.F[P-](F)(F)(F)(F)F` + c1ccccc1 has a viscosity (313.2 K, x2 = 0.0999) of 54.8 mPa·s, a viscosity (313.2 K, x2 = 0.2002) of 40.7 mPa·s and a viscosity (313.2 K, x2 = 0.3003) of 29 mPa·s. For the same compound, the viscosity (313.2 K, x2 = 0.3953) was 18.5 mPa·s, the viscosity (313.2 K, x2 = 0.5001) was 11.2 mPa·s and the viscosity (313.2 K, x2 = 0.6779) was 7.2 mPa·s. The viscosity (333.2 K, x2 = 0.0999) was 26.9 mPa·s, the viscosity (333.2 K, x2 = 0.2002) was 22 mPa·s and the viscosity (333.2 K, x2 = 0.3003) was 15.1 mPa·s. For the same compound, the viscosity (333.2 K, x2 = 0.3953) was 9.6 mPa·s and the viscosity (333.2 K, x2 = 0.5001) was 7.6 mPa·s.
